In PubChem BioAssay (NCI) one finds TGI and GI50 data, which are given here for 13 molecules.

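Following 48 hours of exposure in 96-well plates, responses at five concentrations were used to interpolate endpoints linearly. At the GI50, growth is halved. TGI is the concentration that stops growth completely.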 Where a SMILES comes first, the peptide text is derived from it. [ ]: non-standard residue; d: D form. The star is where a group is joined. ξ: configuration not given here. ξF = NC(Cc1ccccc1)C(=O)O; Cbz = O=C(OCc1ccccc1)*; Aib = CC(C)(N)C(=O)O

Test systems include ACHN renal; CAKI-1 renal; COLO 205 colon; MCF7 breast; NCI-H23 lung; OVCAR-4 ovarian; OVCAR-8 ovarian; PC-3 prostate; SK-MEL-28 melanoma; TK-10 renal.
Assay in all cases: growth of human tumour cells (NCI), 48 h

For the molecule `C=C1C(=O)O[C@@H]2/C=C(\C)CC/C=C(\C)CC[C@@]12O`, the TGI is 3.36 µM with ACHN renal; 2.79 µM in the test with CAKI-1 renal; 4.3 µM in the test on COLO 205 colon; 14.5 µM in the test with MCF7 breast; 4.32 µM in the test with NCI-H23 lung; 4.86 µM in the test on OVCAR-4 ovarian. Further, the TGI is 5.18 µM in the test with OVCAR-8 ovarian, 15.6 µM with PC-3 prostate, 13.3 µM in the test on SK-MEL-28 melanoma and 3.42 µM in the test with TK-10 renal.

With `COC(=O)C1=C(C)N2CCSC2(C)C(C(=O)OC)C1c1cccc(Cl)c1` (centres undefined), the TGI is over 100 µM in the test with ACHN renal; 70 µM in the test with CAKI-1 renal; 35.4 µM with COLO 205 colon; 73.8 µM in the test with NCI-H23 lung; over 100 µM with OVCAR-4 ovarian; over 100 µM with OVCAR-8 ovarian. In addition, the TGI in the test on SK-MEL-28 melanoma is 46.9 µM; with TK-10 renal it was over 100 µM.

With `CN(Cc1cn(O)c2nc(=N)nc(N)c-2n1)c1ccc(C(=O)NC23CC4CC(CC(C4)C2)C3)cc1`, the TGI in the test on ACHN renal, in the test with CAKI-1 renal, in the test on COLO 205 colon, with MCF7 breast, with NCI-H23 lung and with OVCAR-8 ovarian was over 100 µM in each case. In addition, the TGI with PC-3 prostate, with SK-MEL-28 melanoma and in the test with TK-10 renal was over 100 µM each time.

In the case of `CC1(CO)COS(=O)OC1` (centres undefined), the TGI in the test with ACHN renal, with COLO 205 colon, in the test on MCF7 breast, in the test with NCI-H23 lung, in the test on OVCAR-4 ovarian and in the test on OVCAR-8 ovarian was over 100 µM throughout. In addition, the TGI with PC-3 prostate, in the test with SK-MEL-28 melanoma and in the test on TK-10 renal was over 100 µM throughout.

On to `O=C1c2cccnc2C(=O)c2c1c(C(=O)OCCN1CCCCC1)c1ccccn21`, for which the GI50 in the test with ACHN renal was 12.9 nM; in the test on CAKI-1 renal it was 26.9 nM; in the test with COLO 205 colon it was 48.1 nM; in the test on MCF7 breast, 5.75 nM; with NCI-H23 lung, 5.7 nM; in the test on OVCAR-4 ovarian, 655 nM. Further, the GI50 in the test on OVCAR-8 ovarian is 34.4 nM; with PC-3 prostate it was 160 nM; in the test with SK-MEL-28 melanoma, 210 nM; in the test with TK-10 renal it was 97.8 nM. Further, the TGI with ACHN renal is 0.0534 µM; in the test on CAKI-1 renal, 1.53 µM; in the test with COLO 205 colon it was 0.169 µM; in the test with MCF7 breast it was 0.0767 µM; with NCI-H23 lung, 0.0291 µM; in the test with OVCAR-4 ovarian, 2.3 µM. Moreover, the TGI with OVCAR-8 ovarian amounted to 1.02 µM; in the test on PC-3 prostate, 9.59 µM; in the test on SK-MEL-28 melanoma it was 2.19 µM; with TK-10 renal it was 0.43 µM.

Turning to `Nc1ccc(O)c2c1C(=O)c1c(N)ccc(O)c1C2=O`, the TGI with ACHN renal, with CAKI-1 renal, with COLO 205 colon, with NCI-H23 lung, in the test on OVCAR-4 ovarian and in the test on OVCAR-8 ovarian was over 100 µM throughout. For the same molecule, the TGI in the test on SK-MEL-28 melanoma and in the test on TK-10 renal was over 100 µM each time.

Turning to `Cc1cc2c(c(O)c1-c1c(C)cc(O)c3c1C(=O)C=CC3=O)C(=O)C=CC2=O`, the TGI in the test with ACHN renal turned out to be 1.44 µM; in the test on CAKI-1 renal, 1.48 µM; with COLO 205 colon, 0.656 µM; in the test with NCI-H23 lung, 18.4 µM; in the test with OVCAR-4 ovarian, 10.3 µM; with PC-3 prostate it was 19 µM. The molecule further registered a TGI in the test with TK-10 renal of 3.12 µM.

In the case of `CCN1c2cc(Br)cc3[nH]c(=O)n(c23)CCC1C` (centres undefined), the TGI with ACHN renal turned out to be 63.5 µM; with CAKI-1 renal, 36 µM; in the test on COLO 205 colon it was 31.3 µM; with MCF7 breast it was 54.5 µM; with NCI-H23 lung it was 53.2 µM; in the test with OVCAR-4 ovarian, 65.2 µM. In addition, the TGI in the test on OVCAR-8 ovarian is 30.9 µM; in the test on PC-3 prostate, 39.7 µM; in the test with SK-MEL-28 melanoma, 65.8 µM; in the test with TK-10 renal it was 49.2 µM.

As for `OCC(O)CNc1ncnc2ccccc12` (centres undefined), the TGI with ACHN renal, in the test on CAKI-1 renal, with COLO 205 colon, with MCF7 breast, in the test with NCI-H23 lung and in the test on OVCAR-4 ovarian was over 100 µM in each case. The TGI with OVCAR-8 ovarian, in the test with PC-3 prostate, with SK-MEL-28 melanoma and in the test on TK-10 renal was over 100 µM throughout.

On to `CNC1Cc2c[nH]c3cccc(c23)C12C=C(C)C(=O)O2` (centres undefined), for which the TGI in the test with ACHN renal, in the test on CAKI-1 renal, in the test on COLO 205 colon, in the test on MCF7 breast, with NCI-H23 lung and with OVCAR-4 ovarian was over 100 µM each time. The TGI with OVCAR-8 ovarian, in the test on PC-3 prostate, in the test on SK-MEL-28 melanoma and in the test on TK-10 renal was over 100 µM in each case.

For `CCOC(=O)CNC(=O)C(Cc1ccccc1)NC(=O)C(C)(C)NC(=O)OCc1ccccc1` (centres undefined) (Cbz-[Aib]-[ξF]-Gly-OEt), the TGI in the test on ACHN renal, in the test with CAKI-1 renal, in the test on COLO 205 colon, with MCF7 breast, in the test on OVCAR-4 ovarian and in the test with OVCAR-8 ovarian was over 100 µM in each case. Moreover, the results for the TGI in the test with PC-3 prostate, in the test with SK-MEL-28 melanoma and in the test on TK-10 renal were over 100 µM, 33.2 µM and over 100 µM, respectively.

In the case of `O=C(CSCC(=O)N/N=C/c1ccccc1)N/N=C\c1ccccc1`, the TGI in the test with ACHN renal, with CAKI-1 renal, in the test on COLO 205 colon, in the test with MCF7 breast, in the test on NCI-H23 lung and in the test with OVCAR-4 ovarian was over 100 µM in each case. The TGI with OVCAR-8 ovarian, in the test with PC-3 prostate, in the test with SK-MEL-28 melanoma and with TK-10 renal was over 100 µM each time.

`NC(=O)C1CCCN1C(=O)C(N)Cc1ccccc1` (stereo not drawn) (H-Phe-Pro-NH2; configuration not given here): the TGI with ACHN renal, in the test on CAKI-1 renal, with COLO 205 colon, with MCF7 breast, with OVCAR-4 ovarian and with OVCAR-8 ovarian was over 100 µM throughout. Besides, the TGI in the test with PC-3 prostate, in the test on SK-MEL-28 melanoma and with TK-10 renal was over 100 µM each time.
